In patent publication US6083986A, “Potassium channel inhibitors” (ICAgen, Inc., priority 1997, dated 2000):

Legend:
[1] = tested on: nontransfected CHO cells; assay: Fluorescence measurement of cell membrane potential (DiBac4(3)) in non-transfected CHO cells; assay type: cell-based, Chinese hamster; details: 10 μM; CHO-WT
[2] = target: T1, human Kv1.5 potassium channel (Homo sapiens, UniProt P22460); assay: 86Rubidium efflux from CHO cell monolayers expressing Kv1.5; assay type: cell-based; details: 10 μM compound 4; 15 minute period; n=4
T1 construct: Error-free parts of these clones were then ligated together to form a complete cDNA construct; expressed in transfected cells
Experimental: (§4) 2. ^86 Rubidium Efflux From Cell Monolayers
CHO cells stably transfected with either human Kv1.5 or Kv1.3 as well as nontransfected cells were grown to approximately 90% confluence in 24 well tissue culture plates. Tissue culture growth medium was then removed and replaced with 1 ml of Iscoves modified DMEM containing ^86 Rb at a concentration of 1 μCi/ml and incubated for three hours at 37° C. to permit intracellular uptake of the isotope. At the end of the incubation period, the ^86 Rb solution was aspirated and the cells washed three times with Earls Balanced Salt Solution (EBSS). The cells were then incubated for 15 minutes at room temperature in 0.6 ml/well of EBSS or EBSS containing the compounds to be tested. At the end of this period, a 0.3 ml sample was taken for analysis to determine basal efflux of ^86 Rb. To each well was then added 0.3 ml of a modified high KCl EBSS, containing 125 mM KCl (NaCl replaced by KCl; final KCl concentration in each well was 65 nM) and the compounds to be tested. […] Samples were counted in a Wallac Microbeta Liquid Scintillation counter by Cerenkov emission. Efflux was expressed as a percentage of the initial cell content of ^86 Rb.
(§5) Values are means ±s.e. (n=4) of the amount of ^86 Rb released in a 15 minute period and are expressed as a percentage of the initial cell content.

[3] = target: T2, human Kv1.3 potassium channel (Homo sapiens, UniProt P22001); assay: 86Rubidium efflux from CHO cell monolayers expressing Kv1.3; assay type: cell-based; details: for inhibition of 60 mM KCl evoked increase in 86Rb efflux rate (Kv1.3): preexposure to 5 nM margatoxin or 10 μM compound 4, 15 minute period, n=4
Experimental: Stable clones were tested for voltage-gated potassium channel expression using a ^86 rubidium (^86 Rb) ion flux assay (see below for methodology).
as §4
CHO cells stably transfected with either human Kv1.5 or Kv1.3 as well as nontransfected cells were grown to approximately 90% confluence in 24 well tissue culture plates. Tissue culture growth medium was then removed and replaced with 1 ml of Iscoves modified DMEM containing ^86 Rb at a concentration of 1 μCi/ml and incubated for three hours at 37° C. to permit intracellular uptake of the isotope. At the end of the incubation period, the ^86 Rb solution was aspirated and the cells washed three times with Earls Balanced Salt Solution (EBSS). The cells were then incubated for 15 minutes at room temperature in 0.6 ml/well of EBSS or EBSS containing the compounds to be tested. At the end of this period, a 0.3 ml sample was taken for analysis to determine basal efflux of ^86 Rb. To each well was then added 0.3 ml of a modified high KCl EBSS, containing 125 mM KCl (NaCl replaced by KCl; final KCl concentration in each well was 65 nM) and the compounds to be tested. The high KCl concentration was utilized to depolarize the cells to membrane potentials that would activate Kv1.3 and Kv1.5 channels. After a 15 minute incubation, another 0.3 ml sample was taken for analysis. Finally 0.3 ml of 0.2% sodium dodecyl sulfate in EBSS was added to each well to lyse the cells. Of this lysate 0.3 ml was taken for analysis to determine final cell content of ^86 Rb. Samples were counted in a Wallac Microbeta Liquid Scintillation counter by Cerenkov emission. Efflux was expressed as a percentage of the initial cell content of ^86 Rb.
as §5

[4] = tested on: IKur in human atrial myocytes; assay: Inhibition of IKur currents in isolated human atrial myocytes; assay type: cell-based
Experimental: (§1) 4. Electrophysiological Studies
(§2) Electrophysiological recordings of native channels in cells and cell lines, cloned and expressed channels in cells (e.g., CHO cells) as well as isolated cardiac myocytes were performed using the whole cell configuration of the patch clamp technique (Hamill et al., Pflugers Archiv 391:85, 1981). Cell lines were prepared as described above (cloning, etc.). Rat and human cardiac myocytes were isolated using the methods described in Castle and Slawsky, J. Pharmacol. Exp. Ther. 264:1450, 1993 and Wang et al., Circ. Res., 73:1061, 1993, respectively. Cells were plated on glass coverslips at a density of 2×10^4 cells/coverslip and used within 24-48 hours for cultured cell lines and within 6 hours for isolated cardiac myocytes. The coverslips were placed in a small chamber (volume ~200 μl) on the mechanical stage of an inverted microscope and perfused (2 ml/min) with extracellular recording solution. Drug application was achieved via a series of narrow-bore glass capillary tubes (inner diameter ~100 μm) positioned approximately 200 μm from the cell. Application of voltage-clamp pulses, data acquisition and the analysis were controlled by a 75 MHz Pentium computer using pCLAMP 6.0 software (Axon Instruments Inc. Foster City, Calif.).

[5] = tested on: rat cardiac myocytes; assay: Action potential prolongation in rat cardiac myocytes; assay type: cell-based; details: 1 μM, 2 min application
Experimental: as §1, §2
(§3) A functional consequence of potassium channel inhibition in the heart is a prolongation of the action potential duration. […]

[6] = target: T1, human Kv1.5 potassium channel; assay: Whole cell patch clamp, inhibition of Kv1.5 current in CHO cells; assay type: cell-based; details: for IC50: Kv1.5, whole cell patch clamp, approx. values, read-out: 50% Channel Inhibition (IC50)
Experimental: as §1, §2
500 ms voltage clamp steps from -80 mV to +60 mV were applied to individual cells every 20 seconds for Kv1.5 and every 60 seconds for Kv1.3.

[7] = tested on: human atrial myocytes; assay: Action potential prolongation in isolated human atrial myocytes; assay type: cell-based
Experimental: as §1, §2, §3

[8] = target: T2, human Kv1.3 potassium channel; assay: Whole cell patch clamp, inhibition of Kv1.3 current in CHO cells; assay type: cell-based; details: 10 μM, 5 min preincubation; steps -80 mV to +60 mV every 60 seconds
Experimental: as §1
as §2, with “Calif.). […]” for “Calif.).”

[9] = tested on: human T lymphocytes; assay: T-lymphocyte proliferation assay (PHA-stimulated 3H-thymidine incorporation); assay type: cell-based; details: compared to PHA-only controls; 10 μM compound 4, 1 nM margatoxin, 50 nM charybdotoxin; PHA 1.25 or 2.5 μg/ml
Experimental: Lymphocyte Proliferation Studies
(§6) A T-lymphocyte proliferation assay was performed using human peripheral T-lymphocytes isolated by centrifugation on lymphocyte separation medium (Organon Teknika) followed by adherence of non-T cells on nylon wool. […] 100 μl of cells/well was dispensed into a 96-well plate. Cells were stimulated with phytohemoagglutinin (1.25 or 2.5 μg/ml final concentration) in the presence or absence of various antagonists for 3 days. On the fourth day, cells were pulsed with [^3 ]thymidine for an additional 18 hours and harvested on glass fiber filtermats with extensive washing. Mats were counted in a Wallac Microbeta liquid scintillation counter using melt-on scintillant. Additional wells were counted at the end of the 18 hour period to determine if the drug treatments caused cellular toxicity.

[10] = tested on: human T-lymphocytes; assay: Toxicity to human T-lymphocytes (cell viability); assay type: cell-based; details: 10 μM, 90 hours of exposure
Experimental: as §6

[11] = target: T2, human Kv1.3 potassium channel; assay: Fluorescence measurement of cell membrane potential (DiBac4(3)) in CHO cells expressing Kv1.3; assay type: cell-based; details: 10 μM; compared with margatoxin; CHO cells expressing human Kv1.3
Experimental: Fluorescence Measurement of Cell Membrane Potential
CHO cells stably transfected with genes encoding human voltage gated potassium channels were grown to 80-90% confluency in 96 well tissue culture plates. On the experimental day, they were repeatedly contacted with a modified EBSS (116 mM NaCl, 5.4 mM KCl, 1.8 mM CaCl2, 0.8 mM MgCl2, 20 mM HEPES, 5 nM glucose; pH 7.4, 300 mOsm) plus 5 μM of the voltage-sensitive oxonol dye, bis-(1,3-dibutylbarbituric acid)trimethine oxonol (DiBac4 (3)). Dibac4 (3) binds to intracellular proteins in a membrane potential-dependent process, changing the effective concentration of fluorescing molecules. […] The cells in each well were then incubated in EBSS+5 μM DiBac4 (3) at 37° C. for 30 minutes. The 96 well plate was then placed in a 35° C. temperature controlled chamber within a laser based fluorescence imaging plate reader (NovelTech Inc.). Data were collected every 60 seconds for periods ranging from 20 to 40 min. To permit comparative quantification of the magnitude of drug induced changes in the fluorescence signal, changes were compared to the addition of EBSS+5 μM DiBac4 (3) without drug and EBSS+5 μM DiBac4 (3)+30 mM KCl without drug, and expressed as a percentage of the increase in fluorescence induced by exposure of the cells to 30 mM KCl. […]

T1 sequence (P22460 whole entry): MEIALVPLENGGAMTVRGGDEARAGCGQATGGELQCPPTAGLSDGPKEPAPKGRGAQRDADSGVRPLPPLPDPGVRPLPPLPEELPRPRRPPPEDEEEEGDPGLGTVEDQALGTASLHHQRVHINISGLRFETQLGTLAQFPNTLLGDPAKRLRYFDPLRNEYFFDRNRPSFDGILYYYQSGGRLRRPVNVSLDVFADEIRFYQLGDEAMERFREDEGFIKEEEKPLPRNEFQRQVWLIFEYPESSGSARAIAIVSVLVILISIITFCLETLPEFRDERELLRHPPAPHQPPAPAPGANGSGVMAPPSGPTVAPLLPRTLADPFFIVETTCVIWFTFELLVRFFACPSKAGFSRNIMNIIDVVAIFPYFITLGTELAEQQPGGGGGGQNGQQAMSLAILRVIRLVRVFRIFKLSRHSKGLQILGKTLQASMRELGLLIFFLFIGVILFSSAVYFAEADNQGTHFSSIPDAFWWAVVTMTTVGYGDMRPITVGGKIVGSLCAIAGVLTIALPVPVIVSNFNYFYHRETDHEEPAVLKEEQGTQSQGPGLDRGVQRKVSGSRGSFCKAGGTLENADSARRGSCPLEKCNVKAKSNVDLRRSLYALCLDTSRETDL
T2 sequence (P22001 whole entry): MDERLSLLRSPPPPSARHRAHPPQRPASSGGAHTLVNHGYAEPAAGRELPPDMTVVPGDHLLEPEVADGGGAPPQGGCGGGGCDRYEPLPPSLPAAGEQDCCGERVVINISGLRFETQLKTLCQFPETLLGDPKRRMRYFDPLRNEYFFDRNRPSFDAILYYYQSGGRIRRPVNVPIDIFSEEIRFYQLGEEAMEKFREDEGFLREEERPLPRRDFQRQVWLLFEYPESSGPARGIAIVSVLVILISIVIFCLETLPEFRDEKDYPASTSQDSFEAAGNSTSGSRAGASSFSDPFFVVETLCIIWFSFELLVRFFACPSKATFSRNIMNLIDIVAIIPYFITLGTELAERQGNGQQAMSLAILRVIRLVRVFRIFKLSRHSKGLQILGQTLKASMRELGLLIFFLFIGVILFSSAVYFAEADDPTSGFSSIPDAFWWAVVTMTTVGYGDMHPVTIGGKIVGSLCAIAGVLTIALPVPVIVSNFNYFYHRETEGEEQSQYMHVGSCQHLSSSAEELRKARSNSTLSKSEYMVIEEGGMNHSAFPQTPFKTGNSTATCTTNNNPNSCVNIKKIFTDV

Molecule: CCc1ccc(S(=O)(=O)N[C@H]2c3cc(NC(=O)c4cccc(OC)c4)ccc3C[C@@H]2O)cc1 (relative stereo) [Compound 4, 1-(p-ethylphenyl)sulfimide-2-hydroxy-6-(m-methoxy)benzamido-indane]
- compound-induced depolarization (nontransfected cells) [1]: absent
- inhibition of KCl evoked increase in 86Rb efflux rate (Kv1.5) [2]: completely inhibited
- inhibition of 60 mM KCl evoked increase in 86Rb efflux rate (Kv1.3) [3]: completely abolished
- inhibition at 1 µM [4]: > 50%
- prolongation of the action potential (rat) [5]: prolongs the action potential
- inhibition of potassium currents (Kv1.5) ([6]; 10 μM, 5 min preincubation, steps -80 mV to +60 mV every 20 seconds): inhibition of potassium currents
- IC50 [6]: ~0.1 µM
- activation at 1 µM [7]: > 50%
- inhibition of potassium currents (Kv1.3) [8]: inhibition of potassium currents
- inhibition of lymphocyte proliferation [9]: inhibited lymphocyte proliferation to a similar extent
- cell viability / toxicity to human T-lymphocytes [10]: no decrease in cell viability
- cell membrane depolarization (Kv1.3) [11]: produced a depolarization similar in magnitude to that induced by the Kv1.3-specific blocking toxin margatoxin

Molecule: CCc1ccc(S(=O)(=O)NC2c3cc(NC(=O)c4cccc(C)c4)ccc3CC2O)cc1 (stereo not drawn) [Compound 2]
- IC50 [6]: ~1 µM

Molecule: COc1ccc(S(=O)(=O)NC2c3cc(NC(=O)c4cccc(OC)c4)ccc3CC2O)cc1 (stereo not drawn) [Compound 10]
- IC50 [6]: > 1 µM

Molecule: CCc1ccc(S(=O)(=O)NC2c3cc(NC(=O)CCC4CCCC4)ccc3CC2O)cc1 (stereo not drawn) [Compound 11]
- IC50 [6]: ~1 µM

Molecule: COc1cccc(C(=O)Nc2ccc3c(c2)C(NS(=O)(=O)c2ccccc2)C(O)C3)c1 (stereo not drawn) [Compound 12]
- IC50 [6]: > 1 µM

Molecule: CCc1ccc(S(=O)(=O)NC2c3cc(NC(=O)C4CC5CCC4CC5)ccc3CC2O)cc1 (stereo not drawn) [Compound 13]
- IC50 [6]: ~1 µM

Molecule: CCCCCOc1ccc(C(=O)Nc2ccc3c(c2)C(NS(=O)(=O)c2ccc(CC)cc2)C(O)C3)cc1 (stereo not drawn) [Compound 15]
- IC50 [6]: ~1 µM

Molecule: COc1cccc(C(=O)Nc2ccc3c(c2)C(NS(=O)(=O)c2ccc4ccccc4c2)C(O)C3)c1 (stereo not drawn) [Compound 16]
- IC50 [6]: ~1 µM

Molecule: CCc1ccc(S(=O)(=O)NC2c3cc(NC(=O)c4ccccc4F)ccc3CC2O)cc1 (stereo not drawn) [Compound 17]
- IC50 [6]: > 1 µM

Molecule: charybdotoxin
- inhibition of lymphocyte proliferation [9]: inhibited lymphocyte proliferation to a similar extent

Molecule: margatoxin (TIINVKCTSPKQCLPPCKAQFGQSAGAKCMNGKCKCYPH; UniProt P40755 1-39, looked up)
- inhibition of KCl-stimulated 86Rb efflux ([3]; margatoxin present, four positive Kv1.3 clones): approximately 95%
- inhibition of 60 mM KCl evoked increase in 86Rb efflux rate (Kv1.3) [3]: completely abolished
- inhibition of lymphocyte proliferation [9]: inhibited lymphocyte proliferation to a similar extent
